# Patent US5496856A, “Aspartame for its application as a therapeutically active substance” (priority 1993, dated 1996)
# Entries after “also recorded” stand apart in the source; their conditions may differ. Peptide text beside a SMILES is read from it.
# What was measured:
# [1] = system: glomerular filtration; conditions: mice
# Experimental: Male mice of the Swiss strain weighing 32±2 g are distributed into cages in groups of 5. The animals are classified in order of increasing weight and distributed randomly into 4 groups of 5 mice (homogeneous distribution by randomization).
# An amount of ochratoxin A corresponding to 289 μg/kg of body weight is given to the mice via an esophageal tube every 48 h for one week; the toxin is dissolved in 0.3 ml of 0.1M NaHCO3, pH 7.4.
# 0.3 ml of 0.1 M NaHCO3, pH 7.4, is given in the same way to the mice used as controls.
# 4 groups of 5 mice were studied.
# Group I: control mice treated with 0.1 M NaHCO3, pH 7.4
# Group II: mice treated with ochratoxin A (289 μg/kg)
# Group III: mice treated with ochratoxin A (289 μg/kg)+aspartame (30 mg/kg)
# Group IV: control mice treated with aspartame only.
# The aspartame is administered in 0.3 ml of H2 O one hour after the last administration of ochratoxin A.
# The mice are placed in a metabolic cage for 15 hours and then sacrificed.
# The creatinine is assayed in the 15-hour urine and serum.
# [2] = system: glomerular filtration; experiment: Serum and urine creatinine in ochratoxin A-treated rats; type: in vivo, male rats of the Wistar strain
# Experimental: The animals used in this experiment are male rats of the Wistar strain weighing 160±10 g. The animals are classified in order of increasing weight and distributed randomly into 4 groups of 6 rats (homogeneous distribution by randomization).
# An amount of ochratoxin A corresponding to 289 μg/kg of body weight is given to the rats by gavage every 48 hours for 3 weeks; the toxin is dissolved in 0.3 ml of a 0.1 M solution of NaHCO3, pH 7.4.
# [3] = system: tubular cells; experiment: Urinary renal enzyme activities (LAP, PAL, LDH, γ-GT) in rats treated with ochratoxin A; type: in vivo; conditions: aspartame 25 mg/kg + ochratoxin A 289 μg/kg, 3 weeks
# Experimental: (§1) The animals used in this experiment are male rats of the Wistar strain weighing 160±10 g.
# (§2) The aspartame is administered by gavage, at the same time as the ochratoxin A, every 48 hours for 3 weeks.
# (§3) Group I: control rats (blanks)
# (§4) Group II: control rats treated with 0.1 M NaHCO3, pH 7.4
# (§5) Group III: rats treated with ochratoxin A (289 μg/kg)
# (§6) Group IV: rats treated with ochratoxin A (289 μg/kg)+aspartame (25 mg/kg).
# (§7) The control and treated rats are placed in a metabolic cage for 24 hours for urine sampling and then sacrificed.
# [4] = Urine proteins in rats treated with ochratoxin A; type: in vivo; conditions: aspartame 25 mg/kg + ochratoxin A 289 μg/kg, 3 weeks
# Experimental: as §1, §2, §3, §4, §5, §6, §7
# [5] = Serum and urine assays of ochratoxin (urinary elimination); type: in vivo, rats
# Experimental: as §1, §2, §3, §4, §5, §6, §7
# [6] = system: DNA; experiment: DNA adducts by postlabeling with ATP gamma 32P in organs (genotoxicity); type: in vivo, rats
# Experimental: as §1, §2, §7
# The organs of the same animals were used for extraction of the DNA, which was analyzed by the technique of postlabeling with ATP gamma 32P in order to evaluate the genotoxicity by the presence of adducts with DNA bases.
# [7] = system: human plasma proteins; experiment: OTA binding to human plasma proteins, condition (i): aspartame in upper (plasma) compartment; type: in vitro ADME
# Experimental: (§8) A further study was performed in order to determine the effect of aspartame on OTA binding on human plasma proteins in vitro.
# (§9) An in-vitro study was performed on plasma samples obtained from healthy human volunteers, from a French blood bank (Centre de transfusion sanguine in Bordeaux), using citrate as anticoagulant. Blood samples were centrifuged at 1800 g for 30 minutes. This pooled human plasma contained 41±3 g of proteins per liter.
# (§10) Static diffusion cells (polypropylene, homemade according to the model provided by Nalgene, USA) containing two compartments (upper and lower) separated by a dialysing membrane having a 10 000 D exclusion limit (Sigma Chemical, USA) were used. This membrane allows OTA and aspartame diffusion and not protein diffusion.
# (§11) A human plasma sample was placed in the upper compartment and a medium (RPMI 1640, Sigma chemical, USA) in the lower one.
# (§12) The plasma binding properties of OTA were evaluated under two different conditions:
# (i) The aspartame at a concentration of 10 μg/ml was added in the upper compartment containing human plasma proteins before introducing OTA at three different concentrations (20, 100, and 500 μg/ml) in the lower compartment;
# (§13) OTA concentration in the upper compartment was determined by HPLC (Mobile phase: methanol, acetonitrile, acetic acid, sodium acetate 5 mM (300: 300: 400: 14 v/v/v/v); injection volume 50 μl; flow rate 1 ml/min; run time for one cycle: 10 min and fluorescence detection (excitation at 340 nm and emission at 465 nm).
# (§14) Before extraction of OTA from the plasma, all the studied samples of plasma, which had already fixed OTA, were dialysed against free OTA RPMI medium for at least 15 minutes, one or several times, until no more OTA was found in the lower compartment.
# (§15) The results obtained under condition (i) as defined hereinabove are reported in Table I, whereas the results obtained under condition (ii) are reported in Table II.
# [8] = system: human plasma proteins; experiment: OTA binding to human plasma proteins, condition (ii): OTA with or without aspartame in lower compartment; type: in vitro ADME
# Experimental: as §8, §9, §10, §11, §12
# (ii) The upper compartment contained human plasma proteins only and OTA (20, 100 and 500 μg/ml) was added into the lower compartment alone or concommitantly with 10 μg/ml aspartame.
# as §13, §14, §15
# Under condition (ii) (Table II), the aspartame was put in the same compartment as OTA in the non-plasmatic compartment to mimic the stomach (the ration OTA/aspartame=1.5 to 36).
# [9] = system: renal cells; experiment: Entry of ochratoxin into renal cells; conditions: ochratoxin A with aspartame
# [10] = Plasma concentration of aspartame after oral administration; type: in vivo; conditions: within 24h, per os
# [11] = Toxic oxidative effects of ochratoxin A in vivo and in vitro
# [12] = aspartame 30 mg/kg one hour after last ochratoxin A
# [13] = rats, aspartame 25 mg/kg + ochratoxin A 289 μg/kg every 48 h, 3 weeks, gavage
# [14] = OTA 20 μg/ml, 30 min, aspartame 10 μg/ml
# [15] = OTA 20 μg/ml, 60 min, aspartame 10 μg/ml
# [16] = OTA 20 μg/ml, 120 min, aspartame 10 μg/ml
# [17] = OTA 100 μg/ml, 30 min, aspartame 10 μg/ml
# [18] = OTA 100 μg/ml, 60 min, aspartame 10 μg/ml
# [19] = OTA 100 μg/ml, 120 min, aspartame 10 μg/ml
# [20] = OTA 500 μg/ml, 30 min, aspartame 10 μg/ml
# [21] = OTA 500 μg/ml, 60 min, aspartame 10 μg/ml
# [22] = OTA 500 μg/ml, 120 min, aspartame 10 μg/ml
structure (smiles),measurement,setting,value
"COC(=O)[C@H](Cc1ccccc1)NC(=O)[C@@H](N)CC(=O)O [Aspartame, methyl ester of L-aspartyl- L-phenylalanine] (H-Asp-Phe-OMe)",effect on the increase in serum creatinine,[1]; [12],very markedly reduces the increase in serum creatinine
same,effect on urine creatinine,[1]; [12],"increases the level of urine creatinine, which is similar to the control values"
same,effects on serum creatinine and serum creatinine/urine creatinine ratio (glomerular filtration),[1]; aspartame 30 mg/kg with ochratoxin A 289 μg/kg,beneficial
same,level of serum creatinine,[2]; [13],significant reduction in the level of serum creatinine
same,level of urine creatinine,[2]; [13],"parallel increase in the level of urine creatinine, which is comparable to the control level"
same,tubular and glomerular attacks caused by ochratoxin,[2]; summary statement,protects the kidney from the tubular and glomerular attacks caused by ochratoxin
same,effect on the increase in urinary enzymic activities caused by ochratoxin A,[3],appreciably reduces the increase in the enzymic activities caused by ochratoxin A
same,urinary enzymic activities vs controls,[3],not being significantly different from those of the controls
same,effect on the ochratoxin-induced increase in the level of urine proteins,[4],"reduces the increase, induced by ochratoxin, in the level of urine proteins"
same,urinary elimination of ochratoxin,"[5]; serum and urine assays, rats, aspartame 25 mg/kg + ochratoxin A, 3 weeks",very substantially favors urinary elimination of the ochratoxin A; also recorded: significantly increases the urinary elimination of ochratoxin
same,effect on metabolism and elimination of ochratoxin A,[5]; summary statement,slow down the metabolism and accelerate the elimination of ochratoxin A
same,"DNA adducts in organs, aspartame and OTA","[6]; aspartame 25 mg/kg + OTA 289 μg/kg, 3 weeks",virtually complete disappearance of the DNA adducts; also recorded: comparable to those of the controls
same,nephrotoxic and genotoxic effects (overall conclusion),[6]; results of the experiments performed,suppresses not only the nephrotoxic effects but also the genotoxic effects
same,"Quantities of OTA bound to plasma proteins, OTA + Aspartame (Table I)",[7]; [14],157 ± 12 ng/mL
same,"Quantities of OTA bound to plasma proteins, OTA + Aspartame (Table I)",[7]; [15],97 ± 4 ng/mL
same,"Quantities of OTA bound to plasma proteins, OTA + Aspartame (Table I)",[7]; [16],15 ± 3 ng/mL
same,"Quantities of OTA bound to plasma proteins, OTA + Aspartame (Table I)",[7]; [17],193 ± 17 ng/mL
same,"Quantities of OTA bound to plasma proteins, OTA + Aspartame (Table I)",[7]; [18],74 ± 11 ng/mL
same,"Quantities of OTA bound to plasma proteins, OTA + Aspartame (Table I)",[7]; [19],55 ± 15 ng/mL
same,OTA available that is bound as compared to control without aspartame,"[7]; OTA 100 μg/ml, aspartame 10 μg/ml",4.5%
same,"Quantities of OTA bound to plasma proteins, OTA + Aspartame (Table I)",[7]; [20],275 ± 41 ng/mL
same,"Quantities of OTA bound to plasma proteins, OTA + Aspartame (Table I)",[7]; [21],296 ± 45 ng/mL
same,"Quantities of OTA bound to plasma proteins, OTA + Aspartame (Table I)",[7]; [22],345 ± 51 ng/mL
same,OTA available that is bound to plasma proteins as compared to control without aspartame,"[7]; OTA 500 μg/ml, aspartame 10 μg/ml",19.8%
same,dependence of efficiency in preventing OTA binding on OTA concentration,[7]; OTA 20 to 500 μg/ml,inversely proportional to the concentrations of OTA
same,OTA available that is bound as compared to the control without aspartame,"[7]; Table I, OTA 20 μg/ml, aspartame 10 μg/ml",2%
same,efficiency in preventing the binding of OTA on human plasma proteins,"[7]; Table I, OTA concentrations as high as 20 μg/ml, aspartame 10 μg/ml",about 98%
same,OTA bound (in words),"[7]; aspartame 10 μg/ml, i.e. 10 mg/l",practically no OTA bound
same,efficiency in preventing the OTA binding on human plasma proteins (conclusion),"[7]; normal conditions, OTA concentrations lower than 20 μg/ml",at least 95%
same,"Quantities of OTA bound to plasma proteins, OTA + Aspartame (Table II)",[8]; [14],159 ± 13 ng/mL
same,"Quantities of OTA bound to plasma proteins, OTA + Aspartame (Table II)",[8]; [15],53 ± 6 ng/mL
same,"Quantities of OTA bound to plasma proteins, OTA + Aspartame (Table II)",[8]; [16],39 ± 4 ng/mL
same,"Quantities of OTA bound to plasma proteins, OTA + Aspartame (Table II)",[8]; [17],245 ± 15 ng/mL
same,"Quantities of OTA bound to plasma proteins, OTA + Aspartame (Table II)",[8]; [18],459 ± 27 ng/mL
same,"Quantities of OTA bound to plasma proteins, OTA + Aspartame (Table II)",[8]; [19],587 ± 38 ng/mL
same,"Quantities of OTA bound to plasma proteins, OTA + Aspartame (Table II)",[8]; [20],516 ± 19 ng/mL
same,"Quantities of OTA bound to plasma proteins, OTA + Aspartame (Table II)",[8]; [21],1127 ± 89 ng/mL
same,"Quantities of OTA bound to plasma proteins, OTA + Aspartame (Table II)",[8]; [22],1789 ± 56 ng/mL
same,efficiency in preventing the binding of OTA on human plasma proteins,"[8]; OTA in lower compartment (stomach), OTA as high as 20 μg/ml",more than 95%
same,prevention of the binding of OTA,"[8]; Table II, OTA 100 μg/ml, aspartame 10 μg/ml",50%
same,efficiency in preventing OTA binding (in words),"[8]; Table II, OTA 500 μg/ml, aspartame 10 μg/ml",no longer efficient
same,concentration/entry of ochratoxin in renal cells,[9],limiting the entry of ochratoxin into these cells; also recorded: reducing the concentration of ochratoxin in the renal cells
same,oral dose of aspartame giving plasma concentration of 10 mg/l,[10],400 to 600 mg
same,effect on toxic oxidative effects of ochratoxin A,[11],opposes the toxic oxidative effects of ochratoxin A in vivo and in vitro
